From article PMC6316731 (Brain Sciences, 2018) come the findings set out here.

This experiment relates to GABA induced current in MSNs (GABAA receptors with δ subunits / GABAC receptors). The format is cell-based, mouse.

What is called EC50 is the concentration needed to bring the measured effect to its halfway point.

Turning to `Oc1noc2c1CCNC2` [Gaboxadol, 4,5,6,7-tetrahydroisoxazolo (5,4-c) pyridin-3-ol], the “Effect on IGABA” value is reported as “concentration-dependent reduction in IGABA”. For the same compound, where the note is “read-out: EC50, percent reduction in current by Gaboxadol”, the half-maximal effective concentration (EC50) came out at 9.81 ± 3.56 µM.
